Reference: patent publication US20230085307A1, “PYRIDAZINONE COMPOUND AND HERBICIDE” (NISSAN CHEMICAL CORPORATION, priority 2019, published 2023)

How the values were obtained:
[1] = test system: late watergrass; experiment: Test Example 1: herbicidal activity, application before weed generation under submerged conditions (Table 16, symbol A); type: in vivo, late watergrass (Echinochloa oryzicola); details: for Herbicidal effect on A: late watergrass (grade 0-5): 320 g/ha applied herbicide; for Herbicidal effect, A: late watergrass: amount of applied herbicide 320 g/ha
How it was run: (§1)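 Alluvial soil was flooded to 4 cm depth, weed seeds were sown mixed and 2.5-leaf rice seedlings were transplanted. On sowing day, the compound's emulsion, diluted in water to a set dose, was applied to the water surface. Plants grew at 25–30 °C and were scored 0–5 after three weeks.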

[2] = test system: Japanese bulrush; experiment: Test Example 1: herbicidal activity, application before weed generation under submerged conditions (Table 16, symbol B); type: in vivo, Japanese bulrush (Schoenoplectus juncoides); details: for Herbicidal effect on B: Japanese bulrush (grade 0-5): 320 g/ha applied herbicide; for Herbicidal effect, B: Japanese bulrush: amount of applied herbicide 320 g/ha
How it was run: as §1

[3] = test system: oval-leafed pondweed; experiment: Test Example 1: herbicidal activity, application before weed generation under submerged conditions (Table 16, symbol C); type: in vivo, oval-leafed pondweed (Monochoria vaginalis); details: for Herbicidal effect on C: oval-leafed pondweed (grade 0-5): 320 g/ha applied herbicide; for Herbicidal effect, C: oval-leafed pondweed: amount of applied herbicide 320 g/ha
How it was run: as §1

[4] = test system: southern crabgrass; experiment: Test Example 5: herbicidal effect by foliage application, plastic box (Table 20, symbol F); type: in vivo, southern crabgrass (Digitaria ciliaris); details: foliage application; for F: southern crabgrass, herbicidal effect (criteria 0-5): AAH 320 g/ha, evaluated three weeks after application; for F: southern crabgrass, herbicidal effect grade: 320 g/ha, three weeks after application
How it was run: (§2)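 Sow seeds spot-wise in sterilized diluvial soil; cover with ~1.5 cm soil. Grow 14 days in greenhouse, 25° C. to 30° C. Spray foliage with emulsion diluted to predetermined amount. Rate effect after 3 weeks.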

[5] = test system: green foxtail; experiment: Test Example 5: herbicidal effect by foliage application, plastic box (Table 20, symbol G); type: in vivo, green foxtail (Setaria viridis); details: foliage application; for G: green foxtail, herbicidal effect (criteria 0-5): AAH 320 g/ha, evaluated three weeks after application; for G: green foxtail, herbicidal effect grade: 320 g/ha, three weeks after application
How it was run: as §2

[6] = test system: barnyard grass; experiment: Test Example 5: herbicidal effect by foliage application, plastic box (Table 20, symbol H); type: in vivo, barnyard grass (Echinochloa crus-galli); details: foliage application; for H: barnyard grass, herbicidal effect (criteria 0-5): AAH 320 g/ha, evaluated three weeks after application; for H: barnyard grass, herbicidal effect grade: 320 g/ha, three weeks after application
How it was run: as §2

[7] = test system: wild oat; experiment: Test Example 5: herbicidal effect by foliage application, plastic box (Table 20, symbol I); type: in vivo, wild oat (Avena fatua); details: foliage application, AAH 320 g/ha, evaluated three weeks after application
How it was run: as §2

[8] = test system: blackgrass; experiment: Test Example 5: herbicidal effect by foliage application, plastic box (Table 20, symbol J); type: in vivo, blackgrass (Alopecurus myosuroides); details: foliage application, AAH 320 g/ha, evaluated three weeks after application
How it was run: as §2

[9] = test system: Italian ryegrass; experiment: Test Example 5: herbicidal effect by foliage application, plastic box (Table 20, symbol K); type: in vivo, Italian ryegrass (Lolium multiflorum); details: foliage application, AAH 320 g/ha, evaluated three weeks after application
How it was run: as §2

[10] = test system: windgrass; experiment: Test Example 5: herbicidal effect by foliage application, plastic box (Table 20, symbol L); type: in vivo, windgrass (Apera spica-venti); details: foliage application, AAH 320 g/ha, evaluated three weeks after application
How it was run: as §2

[11] = test system: velvetleaf; experiment: Test Example 5: herbicidal effect by foliage application, plastic box (Table 20, symbol M); type: in vivo, velvetleaf (Abutilon theophrasti); details: foliage application; for M: velvetleaf, herbicidal effect (criteria 0-5): AAH 320 g/ha, evaluated three weeks after application; for M: velvetleaf, herbicidal effect grade: 320 g/ha, three weeks after application
How it was run: as §2

[12] = test system: redroot pigweed; experiment: Test Example 5: herbicidal effect by foliage application, plastic box (Table 20, symbol N); type: in vivo, redroot pigweed (Amaranthus retroflexus); details: foliage application; for N: redroot pigweed, herbicidal effect (criteria 0-5): AAH 320 g/ha, evaluated three weeks after application; for N: redroot pigweed, herbicidal effect grade: 320 g/ha, three weeks after application
How it was run: as §2

[13] = test system: lambsquarters; experiment: Test Example 5: herbicidal effect by foliage application, plastic box (Table 20, symbol O); type: in vivo, lambsquarters (Chenopodium album); details: foliage application; for O: lambsquarters, herbicidal effect (criteria 0-5): AAH 320 g/ha, evaluated three weeks after application; for O: lambsquarters, herbicidal effect grade: 320 g/ha, three weeks after application
How it was run: as §2

[14] = test system: persian speedwell; experiment: Test Example 5: herbicidal effect by foliage application, plastic box (Table 20, symbol R); type: in vivo, Persian speedwell (Veronica persica); details: foliage application, AAH 320 g/ha, evaluated three weeks after application
How it was run: as §2

[15] = test system: barnyard grass; experiment: Test Example 3: herbicidal effect by foliage application, Wagner pot (Table 18, symbol H); type: in vivo, barnyard grass (Echinochloa crus-galli); details: amount of applied herbicide 320 g/ha
How it was run: (§3)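 Plants were sown in alluvial soil held under 0.1–0.5 cm standing water and grown 14 days in a greenhouse at 25–30 °C. An emulsifiable formulation, water-diluted to the set dose, was then sprayed onto the foliage, and effects were scored three weeks later using previously defined criteria.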

[16] = test system: Chinese sprangletop; experiment: Test Example 3: herbicidal effect by foliage application, Wagner pot (Table 18, symbol D); type: in vivo, chinese sprangletop (Leptochloa chinensis); details: amount of applied herbicide 320 g/ha
How it was run: as §3

[17] = test system: rice flat sedge; experiment: Test Example 3: herbicidal effect by foliage application, Wagner pot (Table 18, symbol E); type: in vivo, rice flat sedge (Cyperus iria); details: amount of applied herbicide 320 g/ha
How it was run: as §3

[18] = test system: southern crabgrass; experiment: Test Example 4: herbicidal effect by soil treatment (Table 19, symbol F); type: in vivo, southern crabgrass (Digitaria ciliaris); details: amount of applied herbicide 320 g/ha
How it was run: (§4)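 Applied as a water-diluted emulsion, the compound was sprayed onto soil covering newly sown seeds. Evaluation came three weeks after application, in a greenhouse held at 25° C. to 30° C.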

[19] = test system: green foxtail; experiment: Test Example 4: herbicidal effect by soil treatment (Table 19, symbol G); type: in vivo, green foxtail (Setaria viridis); details: amount of applied herbicide 320 g/ha
How it was run: as §4

[20] = test system: barnyard grass; experiment: Test Example 4: herbicidal effect by soil treatment (Table 19, symbol H); type: in vivo, barnyard grass (Echinochloa crus-galli); details: amount of applied herbicide 320 g/ha
How it was run: as §4

[21] = test system: velvetleaf; experiment: Test Example 4: herbicidal effect by soil treatment (Table 19, symbol M); type: in vivo, velvetleaf (Abutilon theophrasti); details: amount of applied herbicide 320 g/ha
How it was run: as §4

[22] = test system: redroot pigweed; experiment: Test Example 4: herbicidal effect by soil treatment (Table 19, symbol N); type: in vivo, redroot pigweed (Amaranthus retroflexus); details: amount of applied herbicide 320 g/ha
How it was run: as §4

[23] = test system: lambsquarters; experiment: Test Example 4: herbicidal effect by soil treatment (Table 19, symbol O); type: in vivo, lambsquarters (Chenopodium album); details: amount of applied herbicide 320 g/ha
How it was run: as §4

Row | SMILES | Herbicidal effect on A: late watergrass (grade 0-5) [1] | Herbicidal effect on B: Japanese bulrush (grade 0-5) [2] | Herbicidal effect on C: oval-leafed pondweed (grade 0-5) [3] | F: southern crabgrass, herbicidal effect (criteria 0-5) [4] | G: green foxtail, herbicidal effect (criteria 0-5) [5] | H: barnyard grass, herbicidal effect (criteria 0-5) [6] | I: wild oat, herbicidal effect (criteria 0-5) [7] | J: blackgrass, herbicidal effect (criteria 0-5) [8] | K: Italian ryegrass, herbicidal effect (criteria 0-5) [9] | L: windgrass, herbicidal effect (criteria 0-5) [10] | M: velvetleaf, herbicidal effect (criteria 0-5) [11] | N: redroot pigweed, herbicidal effect (criteria 0-5) [12] | O: lambsquarters, herbicidal effect (criteria 0-5) [13] | R: persian speedwell, herbicidal effect (criteria 0-5) [14] | herbicidal effect on H: barnyard grass [15] | herbicidal effect on D: Chinese sprangletop [16] | herbicidal effect on E: rice flat sedge [17] | Herbicidal effect, A: late watergrass [1] | Herbicidal effect, B: Japanese bulrush [2] | Herbicidal effect, C: oval-leafed pondweed [3] | also measured
1 | CSCCOc1cccc(-c2sc3ccc(F)cc3c2-c2c(O)c(C)nn(C)c2=O)c1 [2-273] | 3 (Herbicidal rate of 40% or more and less than 70%) | 0 (Herbicidal rate of 5% or less (almost no effect)) | 0 (Herbicidal rate of 5% or less (almost no effect)) | 0 (Herbicidal rate of 5% or less (almost no effect)) | 0 (Herbicidal rate of 5% or less (almost no effect)) | 0 (Herbicidal rate of 5% or less (almost no effect)) | 0 (Herbicidal rate of 5% or less (almost no effect)) | 0 (Herbicidal rate of 5% or less (almost no effect)) | 1 (Herbicidal rate of 5% or more and less than 20%) | 0 (Herbicidal rate of 5% or less (almost no effect)) | 0 (Herbicidal rate of 5% or less (almost no effect)) | 2 (Herbicidal rate of 20% or more and less than 40%) | 0 (Herbicidal rate of 5% or less (almost no effect)) | 4 (Herbicidal rate of 70% or more and less than 90%) | – | – | – | – | – | – | –
2 | CCCC(=O)Oc1c(C)nn(C)c(=O)c1-c1c(-c2ccc(Cl)cc2Cl)sc2ccc(F)cc12 [2-347] | 3 (Herbicidal rate of 40% or more and less than 70%) | 0 (Herbicidal rate of 5% or less (almost no effect)) | 0 (Herbicidal rate of 5% or less (almost no effect)) | 0 (Herbicidal rate of 5% or less (almost no effect)) | 0 (Herbicidal rate of 5% or less (almost no effect)) | 0 (Herbicidal rate of 5% or less (almost no effect)) | 3 (Herbicidal rate of 40% or more and less than 70%) | 0 (Herbicidal rate of 5% or less (almost no effect)) | 0 (Herbicidal rate of 5% or less (almost no effect)) | 3 (Herbicidal rate of 40% or more and less than 70%) | 0 (Herbicidal rate of 5% or less (almost no effect)) | 0 (Herbicidal rate of 5% or less (almost no effect)) | 3 (Herbicidal rate of 40% or more and less than 70%) | 4 (Herbicidal rate of 70% or more and less than 90%) | 4 (Herbicidal rate of 70% or more and less than 90%) | 4 (Herbicidal rate of 70% or more and less than 90%) | 4 (Herbicidal rate of 70% or more and less than 90%) | – | – | – | –
3 | Cc1nn(C)c(=O)c(-c2c(-c3ccc(OCC[S+](C)[O-])cc3)sc3ccc(F)cc23)c1O (stereo not shown) [2-443] | – | – | – | – | – | – | – | – | – | – | – | – | – | – | 5 (Herbicidal rate of 90% or more (almost completely withered)) | 4 (Herbicidal rate of 70% or more and less than 90%) | 5 (Herbicidal rate of 90% or more (almost completely withered)) | 3 (Herbicidal rate of 40% or more and less than 70%) | 0 (Herbicidal rate of 5% or less (almost no effect)) | 0 (Herbicidal rate of 5% or less (almost no effect)) | herbicidal effect, F: southern crabgrass [18]: 5 (Herbicidal rate of 90% or more (almost completely withered)); herbicidal effect, G: green foxtail [19]: 5 (Herbicidal rate of 90% or more (almost completely withered)); herbicidal effect, H: barnyard grass [20]: 5 (Herbicidal rate of 90% or more (almost completely withered)); herbicidal effect, M: velvetleaf [21]: 3 (Herbicidal rate of 40% or more and less than 70%); herbicidal effect, N: redroot pigweed [22]: 5 (Herbicidal rate of 90% or more (almost completely withered)); herbicidal effect, O: lambsquarters [23]: 4 (Herbicidal rate of 70% or more and less than 90%); F: southern crabgrass, herbicidal effect grade [4]: 5 (Herbicidal rate of 90% or more (almost completely withered)); G: green foxtail, herbicidal effect grade [5]: 5 (Herbicidal rate of 90% or more (almost completely withered)); H: barnyard grass, herbicidal effect grade [6]: 5 (Herbicidal rate of 90% or more (almost completely withered)); M: velvetleaf, herbicidal effect grade [11]: 5 (Herbicidal rate of 90% or more (almost completely withered)); N: redroot pigweed, herbicidal effect grade [12]: 5 (Herbicidal rate of 90% or more (almost completely withered)); O: lambsquarters, herbicidal effect grade [13]: 5 (Herbicidal rate of 90% or more (almost completely withered))
4 | Cc1nn(C)c(=O)c(-c2c(-c3ccc(OCCS(C)(=O)=O)cc3)sc3ccc(F)cc23)c1O [2-444] | – | – | – | – | – | – | – | – | – | – | – | – | – | – | 5 (Herbicidal rate of 90% or more (almost completely withered)) | 4 (Herbicidal rate of 70% or more and less than 90%) | 5 (Herbicidal rate of 90% or more (almost completely withered)) | 3 (Herbicidal rate of 40% or more and less than 70%) | 0 (Herbicidal rate of 5% or less (almost no effect)) | 0 (Herbicidal rate of 5% or less (almost no effect)) | herbicidal effect, F: southern crabgrass [18]: 5 (Herbicidal rate of 90% or more (almost completely withered)); herbicidal effect, G: green foxtail [19]: 5 (Herbicidal rate of 90% or more (almost completely withered)); herbicidal effect, H: barnyard grass [20]: 4 (Herbicidal rate of 70% or more and less than 90%); herbicidal effect, M: velvetleaf [21]: 3 (Herbicidal rate of 40% or more and less than 70%); herbicidal effect, N: redroot pigweed [22]: 5 (Herbicidal rate of 90% or more (almost completely withered)); herbicidal effect, O: lambsquarters [23]: 5 (Herbicidal rate of 90% or more (almost completely withered)); F: southern crabgrass, herbicidal effect grade [4]: 5 (Herbicidal rate of 90% or more (almost completely withered)); G: green foxtail, herbicidal effect grade [5]: 5 (Herbicidal rate of 90% or more (almost completely withered)); H: barnyard grass, herbicidal effect grade [6]: 5 (Herbicidal rate of 90% or more (almost completely withered)); M: velvetleaf, herbicidal effect grade [11]: 5 (Herbicidal rate of 90% or more (almost completely withered)); N: redroot pigweed, herbicidal effect grade [12]: 5 (Herbicidal rate of 90% or more (almost completely withered)); O: lambsquarters, herbicidal effect grade [13]: 5 (Herbicidal rate of 90% or more (almost completely withered))
